Test results reported in patent publication US6552028B2, “2,4-substituted pyrrolidine derivatives-CCR-3 receptor antagonists” (Syntex (U.S.A.) LLC, priority 2000, dated 2003).

melting point: 100.5 to 102.1 °C
Compound: COc1ccc(-c2cnc(SCC(=O)NCC[C@@H]3C[C@@H](Cc4ccc(Cl)c(Cl)c4)CN3)nc2)cc1OC.Cl
